Data published in EP0408294B1, “Use of an amylin antagonist for the manufacture of amedicament for the treatment of obesity and essential hypertension and related disorders” (AMYLIN PHARMACEUTICALS, INC., priority 1989, dated 1995).
Blank lines part the entries; values can stand above or below the substance they belong to. Positions of bridges follow the written chain, without caps; N, C: chain ends. No end group written: not given here.

Columns and labels:
anaesthetised rats = assay: hyperinsulinemic, euglycemic glucose clamp with CGRP infusion; assay type: in vivo, rat
Method: • Figure 1 indicates the effect of amylin on the insulin-stimulated fate of glucose uptake in isolated incubated skeletal muscles of the rat. • Figure 2a indicates the effect of a CGRP infusion on glucose uptake in an anaesthetised rat under conditions of hyperinsulinaemic, euglycaemic glucose clamp, in which insulin alone was initially infused, following by insulin and CGRP. Similar results have been obtained with an infusion of amylin. • Figure 2b indicates the effect of an infusion of CGRP in an anaesthetised rat under conditions of hyperinsulinaemic, euglycaemic clamp, in which insulin and CGRP were initially infused together, followed by cessation of the CGRP infusion. Similar results have been obtained with an infusion of amylin. • Figure 3 indicates the effect of CGRP on hepatic glucose output in anaesthetised rats, under conditions of hyperinsulinaemic, euglycaemic glucose clamp. Error bars give standard error of the mean. • Figure 4 indicates the effect of CGRP on insulin-stimulated glucose uptake in isolated BC3H-1 myocytes. • Figure 5 indicates the relationship between maximal insulin resistance, as measured by maximal insulin-stimulatable glucose disposal, and levels of serum CGRP-like immunoreactivity in the blood of a group of insulin-resistant type 2 diabetic human patients. […]

isolated soleus muscle = assay: amylin antagonist assay: incorporation of radiolabelled glucose into glycogen in isolated soleus muscle; assay type: cell-based, rats; conditions: 1000µU/mL insulin, 20nM amylin
Method: In a further experiment we have shown that the […] CGRP 8-37 also functions as a partial amylin antagonist. Insulin was obtained as Humulin-R, 100U/mL, recombinant human insulin (Eli Lilly, Indianapolis, IN). Amylin, obtained as rat amylin (Bachem, Torrance, CA) and 8-37 human CGRP (Bachem, Torrance CA) were also used. An antagonist assay was performed in vitro using the isolated soleus muscle from rats. It measured the rate of incorporation of radiolabelled glucose into muscle glycogen as follows: (1) under hormone-free conditions (zero insulin, zero amylin, zero hCGRP₈₋₃₇ [antagonist]); (2) under conditions of stimulation of glycogen formation with insulin (1000µU/mL insulin, zero amylin, zero antagonist); (3) under conditions where the near maximal stimulation of glycogen formation has been inhibited with amylin (1000µU/mL insulin, 20nM amylin, zero antagonist); and, (4) under conditions where the suppression of glycogen formation by amylin has been disinhibited by an antagonist to the amylin action (1000µU/mL insulin, 20nM amylin, range of concentrations of antagonist [0, 1nM, 10nM, 100nM, 300nM, 1µM, 10µM]) There were therefore […] (conditions 1,2,3 and […] of condition 4). […]

isolated adipocytes = assay: formation of CO₂ or triacyglycerol in isolated adipocytes; assay type: cell-based
Source text: (§1) In muscles treated with amylin, there was no response to insulin at the concentration necessary for half-maximal stimulation in non amylin-treated muscles. The effects of amylin were seen even in the presence of very low concentrations of insulin. Amylin produced a 30 percent reduction in the basal rate of glycogen synthesis in the presence of a basal concentration (1 µU/ml) of insulin. In marked contrast, amylin had no effect on either the basal or the insulin-stimulated rates of formation of CO₂ or triacyglycerol in isolated adipocytes. The effect of amylin treatment in muscle could only be overcome by increasing the concentration of insulin to the supra-physiological level of 1000 uU/ml.
Amylin acts by reducing both basal and insulin-induced uptake of glucose into skeletal muscle, especially by reducing the rate of incorporation of glucose into glycogen, and also by reducing the rate of glucose uptake into muscle cells (Molina, M. et al., Science 1989; submitted). […] We have concluded that amylin causes the insulin-resistance in type 2 diabetes, probably in conjunction with CGRP and/or CGRP receptors.

normal rats = assay: intravenous amylin bolus in normal rats; assay type: in vivo
Method: Similar results have been obtained using amylin. We have also shown that amylin acutely produces diabetes (fasting hyperglycemia greater than 140 mg/dL) when administered intravenously. Eight normal rats were injected with a 100µg bolus of amylin (rat amylin, Bachem, Torrance, CA). An intravenous amylin bolus produced a profound hyperglycemia to diabetic levels within 15-30 minutes (usually around 200 mg/dL). This hyperglycemia persists for several hours. The hyperglycemia is partly accounted for by an increase in hepatic (endogenous) glucose output and partly by an increased impediment in peripheral glucose disposal. […] There is an increase in respiratory quotient (RQ) after amylin only when somatostatin is absent and insulin is allowed to increase in response to hyperglycemia. During somatostatin infusion (no endogenous insulin release), there is no change in RQ, indicating no change from lipid to carbohydrate fuel usage in response to amylin in the fasted animal.

red skeletal muscle = assay: glycogen synthesis in amylin-treated skeletal muscle in vitro; assay type: cell-based, rat; conditions: insulin at the concentration necessary for half-maximal stimulation in non amylin-treated muscles
Source text: as §1
• Figure 1 indicates the effect of amylin on the insulin-stimulated fate of glucose uptake in isolated incubated skeletal muscles of the rat. • Figure 2a indicates the effect of a CGRP infusion on glucose uptake in an anaesthetised rat under conditions of hyperinsulinaemic, euglycaemic glucose clamp, in which insulin alone was initially infused, following by insulin and CGRP. Similar results have been obtained with an infusion of amylin. • Figure 2b indicates the effect of an infusion of CGRP in an anaesthetised rat under conditions of hyperinsulinaemic, euglycaemic clamp, in which insulin and CGRP were initially infused together, followed by cessation of the CGRP infusion. […]

Substance: CGRP
- glucose infusion rate, new steady state (anaesthetised rats; Figure 2A protocol, CGRP 0.02 ug/kg/min from 80-150 minutes during constant insulin infusion 1.8 mU/kg/min): 18.0 ± 0.1 mg/kg/min
- rise of glucose disposal rate (GDR) over basal (anaesthetised rats; Figure 2B protocol, 3H-glucose, last 20 mins of period, CGRP = CGRP plus insulin, insulin = insulin alone, basal GDR 11.2 ± 0.7): 7.4 ± 1.6 mg/kg/min

- EC50 (isolated soleus muscle; 4-parameter logistic fit, read-out: EC₅₀ for disinhibition (half maximal concentration)): 1.2 nM
Substance: CGRP₈₋₃₇: 8-37 human CGRP (Bachem), sub-peptide of CGRP, partial amylin antagonist
- increment in the rate of glycogen synthesis from the amylin-inhibited level (isolated soleus muscle; antagonist 1nM to 10µM, maximal increment): about 115%

Substance: amylin: 37-amino acid peptide hormone from islet amyloid, Cys 2-7 disulfide bridge, amidated; rat amylin from Bachem used in tests (KCNTATCATQRLANFLVRSSNNLGPVLPPTNVGSNTY-NH2; disulfide 2-7; UniProt P12969 38-74, looked up)
- effect on basal or insulin-stimulated rates of formation of CO₂ or triacyglycerol (isolated adipocytes): no effect
- persistence of hyperglycemia (normal rats; 100µg intravenous bolus of rat amylin): several hours
- hyperglycemia (glucose level reached) (normal rats; 100µg intravenous bolus of rat amylin, eight normal rats): around 200 mg/dL
- respiratory quotient (RQ) (normal rats; after amylin, somatostatin absent, insulin allowed to increase in response to hyperglycemia): increase
- plasma lactate (normal rats; after intravenous amylin bolus): transient increase
- respiratory quotient (RQ) (normal rats; during somatostatin infusion (no endogenous insulin release), fasted animal): no change
- response to insulin in muscles treated with amylin (red skeletal muscle): no response
